Measured values: US20170334899A1, “AMINO-SUBSTITUTED ISOTHIAZOLES” (Bayer Pharma Aktiengesellschaft, priority 2014, published 2017)
Where “and” joins values, the source holds several entries; their conditions need not be identical. Equal entries are not always repeated. Structures can show the parent of a compound that is named as a salt. Where two headings read alike, the source gives them in different places.

Tests used:
[1] = biological target: T1, catalytic domain of human Bub1 (amino acids 704-1085) (Homo sapiens, UniProt O43683); experiment: Bub1 kinase assay (TR-FRET); format: biochemical; conditions: 10 μM ATP, avg, read-out: Bub1 avg (IC50 [mol/l])
T1 construct: catalytic domain of human Bub1 (amino acids 704-1085); His6 (N); made in house; host or cells: insect cells (Hi5)
Text: Bub1-inhibitory activity of compounds of the present invention was quantified employing the Bub1 TR-FRET assay as described in the following paragraphs.
N-terminally His6-tagged recombinant catalytic domain of human Bub1 (amino acids 704-1085), expressed in insect cells (Hi5) and purified by Ni-NTA affinity chromatography and subsequent size exclusion chromatography, was used as enzyme. As substrate for the kinase reaction the biotinylated peptide biotin-Ahx-VLLPKKSFAEPG (C-terminus in amid form) was used which can be purchased e.g. form the company Biosyntan (Berlin, Germany).
For the assay 50 nl of a 100fold concentrated solution of the test compound in DMSO was pipetted into a black low volume 384well microtiter plate (Greiner Bio-One, Frickenhausen, Germany), 2 μl of a solution of Bub1 in aqueous assay buffer [50 mM Tris/HCl pH 7.5, 10 mM magnesium chloride (MgCl2), 200 mM potassium chloride (KCl), 1.0 mM dithiothreitol (DTT), 0.1 mM sodium ortho-vanadate, 1% (v/v) glycerol, 0.01% (w/v) bovine serum albumine (BSA), 0.005% (v/v) Trition X-100 (Sigma), 1× Complete EDTA-free protease inhibitor mixture (Roche)] were added and the mixture was incubated for 15 min at 22° C. to allow pre-binding of the test compounds to the enzyme before the start of the kinase reaction. Then the kinase reaction was started by the addition of 3 μl of a solution of adenosine-tri-phosphate (ATP, 16.7 μM=>final conc. in the 5 μl assay volume is 10 μM) and substrate (1.67 μM=>final conc. in the 5 μl assay volume is 1 μM) in assay buffer and the resulting mixture was incubated for a reaction time of 60 min at 22° C. The concentration of Bub1 was adjusted depending of the activity of the enzyme lot and was chosen appropriate to have the assay in the linear range, typical concentrations were in the range of 200 ng/ml. The reaction was stopped by the addition of 5 μl of a solution of TR-FRET detection reagents (0.2 μM streptavidine-XL665 [Cisbio Bioassays, Codolet, France] and 1 nM anti-phosho-Serine antibody [Merck Millipore, cat. #35-001] and 0.4 nM LANCE EU-W1024 labeled anti-mouse IgG antibody [Perkin-Elmer, product no. AD0077, as an alternative a Terbium-cryptate-labeled anti-mouse IgG antibody from Cisbio Bioassays can be used]) in an aqueous EDTA-solution (50 mM EDTA, 0.2% (w/v) bovine serum albumin in 100 mM HEPES pH 7.5).
The resulting mixture was incubated 1 h at 22° C. to allow the formation of complex between the phosphorylated biotinylated peptide and the detection reagents. Subsequently the amount of phosphorylated substrate was evaluated by measurement of the resonance energy transfer from the Eu-chelate to the streptavidine-XL. Therefore, the fluorescence emissions at 620 nm and 665 nm after excitation at 350 nm was measured in a TR-FRET reader, e.g. a Rubystar or Pherastar (both from BMG Labtechnologies, Offenburg, Germany) or a Viewlux (Perkin-Elmer). The ratio of the emissions at 665 nm and at […] was taken as the measure for the amount of phosphorylated substrate. The data were normalised (enzyme reaction without inhibitor=0% inhibition, all other assay components but no enzyme=100% inhibition).

HeLa = experiment: Proliferation assay (crystal violet), HeLa; format: cell-based; conditions: HeLa cells, 4 days incubation, crystal violet staining, read-out: IC50 inhibition of proliferation, HeLa
How it was run: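 Seed 1000–5000 cells/well, 10% FCS; 24 h later replace medium and add compound (0.001–10 μM, 0.5% DMSO); incubate 4 d; glutaraldehyde fix, 0.1% crystal violet pH 3.0, elute with 10% acetic acid; A595; 4-parameter IC50.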

T1 sequence (O43683 704-1085): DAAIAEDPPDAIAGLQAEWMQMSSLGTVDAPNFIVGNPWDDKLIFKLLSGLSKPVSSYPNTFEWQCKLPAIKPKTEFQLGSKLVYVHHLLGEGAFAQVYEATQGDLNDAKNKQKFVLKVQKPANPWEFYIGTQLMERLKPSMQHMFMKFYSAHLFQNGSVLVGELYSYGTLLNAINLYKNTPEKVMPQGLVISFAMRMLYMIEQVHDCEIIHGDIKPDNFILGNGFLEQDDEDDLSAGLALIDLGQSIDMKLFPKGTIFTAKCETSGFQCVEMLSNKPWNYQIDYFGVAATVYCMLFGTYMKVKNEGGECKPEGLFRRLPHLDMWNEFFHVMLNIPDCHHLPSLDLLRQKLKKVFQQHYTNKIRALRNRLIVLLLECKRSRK

In the case of `Cc1nsc(Nc2cnc3ccccc3n2)c1C(=O)Nc1cccc(C(=O)N[C@@H](CCC(N)=O)C(=O)O)c1` [Example 103, N^2-[3-({[3-Methyl-5-(quinoxalin-2-ylamino)-1,2-thiazol-4-yl]carbonyl}amino)-benzoyl]glutamine], the IC50 [1] is reported as no less than 20 µM and the IC50 (HeLa; Homo sapiens, HeLa, 96 h) is reported as 10 µM.
In the case of `Cc1nsc(Nc2cnc(C(F)(F)F)cn2)c1C(=O)Nc1ccc(OC[C@H]2CCN(CC(F)(F)F)C2)nc1` (racemic) [Example 133, 3-Methyl-N-(6-{[(SR)-1-(2,2,2-trifluoroethyl)pyrrolidin-3-yl]methoxy}pyridin-3-yl)-5-{[5-(trifluoromethyl)pyrazin-2-yl]amino}-1,2-thiazole-4-carboxamide], the IC50 [1] is reported as greater than 20 µM and the IC50 (HeLa; Homo sapiens, HeLa, 96 h) is reported as 0.42 µM.
With `Cc1nsc(Nc2cnc(C(F)(F)F)cn2)c1C(=O)Nc1ccc(OC[C@@H]2CCN(CCC(F)(F)F)C2)nc1` [Example 129, 3-Methyl-5-{[5-(trifluoromethyl)pyrazin-2-yl]amino}-N-(6-{[(3R)-1-(3,3,3-trifluoropropyl)pyrrolidin-3-yl]methoxy}pyridin-3-yl)-1,2-thiazole-4-carboxamide] the IC50 [1] was greater than 20 µM and the IC50 (HeLa; Homo sapiens, HeLa, 96 h) was 0.25 µM.
`Cc1nsc(Nc2cnc(C(F)(F)F)cn2)c1C(=O)Nc1ccc(O[C@@H]2CCN(CCC(F)(F)F)C[C@@H]2F)nc1` [Example 139, N-(6-{[(3S,4R)-3-fluoro-1-(3,3,3-trifluoropropyl)piperidin-4-yl]oxy}pyridin-3-yl)-3-methyl-5-{[5-(trifluoromethyl)pyrazin-2-yl]amino}-1,2-thiazole-4-carboxamide] was tested, and the IC50 [1] was greater than 20 µM and the IC50 (HeLa; Homo sapiens, HeLa, 96 h) was 0.26 µM.
In the case of `Cc1nsc(Nc2cnc3ccccc3n2)c1C(=O)Nc1cccc(C(=O)N2CCN(C)CC2)c1` [Example 102, 3-Methyl-N-{3-[(4-methylpiperazin-1-yl)carbonyl]phenyl}-5-(quinoxalin-2-ylamino)-1,2-thiazole-4-carboxamide], the IC50 [1] is reported as 19 µM and the IC50 (HeLa; Homo sapiens, HeLa, 96 h) is reported as 10 µM.
With `Cc1nsc(Nc2cnc3ccccc3n2)c1C(=O)Nc1cccc(C(=O)NCC(=O)O)c1` [Example 99, N-[3-({[3-Methyl-5-(quinoxalin-2-ylamino)-1,2-thiazol-4-yl]carbonyl}amino)benzoy]-glycine] the IC50 [1] was 2.7 µM and the IC50 (HeLa; Homo sapiens, HeLa, 96 h) was 10 µM.
`Cc1nsc(Nc2cnc(C(F)(F)F)cn2)c1C(=O)Nc1ccc(OC2CCN(CCF)CC2)c(F)c1` [Example 162, N-(3-fluoro-4-{[1-(2-fluoroethyl)piperidin-4-yl]oxy}phenyl)-3-methyl-5-{[5-(trifluoromethyl)pyrazin-2-yl]amino}-1,2-thiazole-4-carboxamide] was tested, and the IC50 [1] was greater than 20 µM and the IC50 (HeLa; Homo sapiens, HeLa, 96 h) was 0.33 µM.
`Cc1nsc(Nc2ccc(C#N)cn2)c1C(=O)Nc1ccc(N[C@@H](C)C(=O)OC(C)(C)C)nc1` [Example 170, tert-butyl N-{5-[({5-[(5-cyanopyridin-2-yl)amino]-3-methyl-1,2-thiazol-4-yl}carbonyl)amino]pyridin-2-yl}alaninate] was tested, and the IC50 [1] was greater than 20 µM and the IC50 (HeLa; Homo sapiens, HeLa, 96 h) was greater than 10 µM.
With `Cc1nsc(Nc2cnc3ccccc3n2)c1C(=O)Nc1cccc(-c2nc(C(C)(C)C)no2)c1` [Example 108, N-[3-(3-tert-Butyl-1,2,4-oxadiazol-5-yl)phenyl]-3-methyl-5-(quinoxalin-2-ylamino)-1,2-thiazole-4-carboxamide] the IC50 [1] was no less than 20 µM and the IC50 (HeLa; Homo sapiens, HeLa, 96 h) was 0.91 µM.
`Cc1nsc(Nc2cnc(C(F)(F)F)cn2)c1C(=O)Nc1ccc(F)c(C(N)=O)c1` [Example 151, N-(3-carbamoyl-4-fluorophenyl)-3-methyl-5-{[5-(trifluoromethyl)pyrazin-2-yl]amino}-1,2-thiazole-4-carboxamide] was tested, and the IC50 [1] was 4.3 µM and the IC50 (HeLa; Homo sapiens, HeLa, 96 h) was 8.9 µM.
In the case of `Cc1nsc(Nc2cnc(C(F)(F)F)cn2)c1C(=O)Nc1ccc(OC2CCN(CCC(F)(F)F)CC2)nc1` [Example 10, 3-Methyl-5-{[5-(trifluoromethyl)pyrazin-2-yl]amino}-N-(6-{[1-(3,3,3-trifluoropropyl)-piperidin-4-yl]oxy}pyridin-3-yl)-1,2-thiazole-4-carboxamide], the IC50 [1] is reported as no less than 20 µM and the IC50 (HeLa; Homo sapiens, HeLa, 96 h) is reported as 0.33 µM.
`CCCCN1CC[C@@H](Oc2ccc(NC(=O)c3c(C)nsc3Nc3cnc(C(F)(F)F)cn3)cn2)[C@@H](F)C1` [Example 141, N-(6-{[(3S,4R)-1-butyl-3-fluoropiperidin-4-yl]oxy}pyridin-3-yl)-3-methyl-5-{[5-(trifluoromethyl)pyrazin-2-yl]amino}-1,2-thiazole-4-carboxamide] was tested, and the IC50 [1] was no less than 20 µM and the IC50 (HeLa; Homo sapiens, HeLa, 96 h) was 0.34 µM.
In the case of `CNS(=O)(=O)c1ccc(NC(=O)c2c(C)nsc2Nc2cnc3ccccc3n2)cc1` [Example 111, 3-Methyl-N-[4-(methylsulfannoyl)phenyl]-5-(quinoxalin-2-ylamino)-1,2-thiazole-4-carboxamide], the IC50 [1] is reported as no less than 20 µM and the IC50 (HeLa; Homo sapiens, HeLa, 96 h) is reported as 4.4 µM.
Work on `Cc1nsc(Nc2cnc(C(F)(F)F)cn2)c1C(=O)Nc1ccc(OC2CCN(CCC(F)(F)F)CC2)nc1` [Example 426, 3-Methyl-5-{[5-(trifluoromethyl)pyrazin-2-yl]amino}-N-(6-{[1-(3,3,3-trifluoro-propyl)piperidin-4-yl]oxy}pyridin-3-yl)-1,2-thiazole-4-carboxamide, Salt with Hydrochloric Acid] yielded an IC50 [1] of no less than 20 µM and an IC50 (HeLa) of 0.42 µM.
`Cc1nsc(Nc2cnc(C(F)(F)F)cn2)c1C(=O)Nc1ccc(OC[C@@H]2CCN(CC(F)F)C2)nc1` [Example 127, N-(6-{[(3R)-1-(2,2-difluoroethyl)pyrrolidin-3-yl]methoxy}pyridin-3-yl)-3-methyl-5-{[5-(trifluoromethyl)pyrazin-2-yl]amino}-1,2-thiazole-4-carboxamide] was tested, and the IC50 [1] was no less than 20 µM and the IC50 (HeLa; Homo sapiens, HeLa, 96 h) was 0.46 µM.
`Cc1nsc(Nc2cnc(C(F)(F)F)cn2)c1C(=O)Nc1ccc(OC[C@H]2CCN(CCC(F)(F)F)C2)nc1` [Example 134, 3-Methyl-5-{[5-(trifluoromethyl)pyrazin-2-yl]amino}-N-(6-{[(3S)-1-(3,3,3-trifluoropropyl)pyrrolidin-3-yl]methoxy}pyridin-3-yl)-1,2-thiazole-4-carboxamide] showed an IC50 [1] greater than 20 µM and an IC50 (HeLa; Homo sapiens, HeLa, 96 h) of 0.45 µM.
Work on `COc1ccc(NC(=O)c2c(C)nsc2Nc2ccc(C#N)cn2)c(N2CCOCC2)n1` [Example 173, 5-[(5-cyanopyridin-2-yl)amino]-N-[6-methoxy-2-(morpholin-4-yl)pyridin-3-yl]-3-methyl-1,2-thiazole-4-carboxamide] yielded an IC50 [1] greater than 20 µM and an IC50 (HeLa; Homo sapiens, HeLa, 96 h) greater than 10 µM.
In the case of `Cc1nsc(Nc2cnc3ccccc3n2)c1C(=O)Nc1ccc(C(=O)NCCN2CCCC(F)(F)C2)cc1` [Example 156, N-(4-{[2-(3,3-difluoropiperidin-1-yl)ethyl]carbamoyl}phenyl)-3-methyl-5-(quinoxalin-2-ylamino)-1,2-thiazole-4-carboxamide], the IC50 [1] is reported as 19 µM and > 20 µM and the IC50 (HeLa; Homo sapiens, HeLa, 96 h) is reported as greater than 10 µM.
`Cc1nsc(Nc2cnc(C(F)(F)F)cn2)c1C(=O)Nc1ccc(OCC2CCN(CCF)C2)nc1` (stereo not shown) [Example 121, N-(6-{[1-(2-fluoroethyl)pyrrolidin-3-yl]methoxy}pyridin-3-yl)-3-methyl-5-{[5-(trifluoromethyl)pyrazin-2-yl]amino}-1,2-thiazole-4-carboxamide] gave an IC50 [1] of no less than 20 µM and an IC50 (HeLa; Homo sapiens, HeLa, 96 h) of 0.82 µM.
`Cc1nsc(Nc2cnc(C(F)(F)F)cn2)c1C(=O)Nc1ccc(OC2CCN(CC(F)F)CC2)c(F)c1` [Example 164, N-(4-{[1-(2,2-difluoroethyl)piperidin-4-yl]oxy}-3-fluorophenyl)-3-methyl-5-{[5-(trifluoromethyl)pyrazin-2-yl]amino}-1,2-thiazole-4-carboxamide] showed an IC50 [1] greater than 20 µM and an IC50 (HeLa; Homo sapiens, HeLa, 96 h) of 0.16 µM.
